Measurements as given in patent publication US20220298186A1, “BIARYL DIALKYL PHOSPHINE OXIDE FPR2 AGONISTS” (BRISTOL-MYERS SQUIBB COMPANY, priority 2019, published 2022).

Legend:
human FPR1 receptors = molecular target: T1, human FPR1 receptors (Homo sapiens, UniProt P21462); test: FPR1 cyclic adenosine monophosphate (cAMP) assay; assay type: cell-based; conditions: CHO cells overexpressing human FPR1; forskolin 10 μM, IBMX 200 μM; 30 min at rt; inhibition of cAMP production (HTRF); read-out: hFPR1 cAMP EC50
T1 sequence (P21462 1-350): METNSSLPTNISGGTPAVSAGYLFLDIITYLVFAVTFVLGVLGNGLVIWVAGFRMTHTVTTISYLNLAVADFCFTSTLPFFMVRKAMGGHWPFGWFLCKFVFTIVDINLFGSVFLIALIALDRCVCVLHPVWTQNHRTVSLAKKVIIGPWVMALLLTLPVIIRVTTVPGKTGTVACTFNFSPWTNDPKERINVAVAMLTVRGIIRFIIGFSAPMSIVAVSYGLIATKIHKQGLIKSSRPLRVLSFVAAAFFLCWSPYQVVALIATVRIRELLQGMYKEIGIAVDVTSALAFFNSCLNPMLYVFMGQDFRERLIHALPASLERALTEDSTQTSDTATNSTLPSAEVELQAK
From the text: (§1) N-formyl peptide receptors (FPRs) are a family of chemo attractant receptors that facilitate leukocyte response during inflammation. FPRs belong to the seven-transmembrane G protein-coupled receptor superfamily and are linked to inhibitory G-proteins (Gi). Three family members (FPR1, FPR2 and FPR3) have been identified in humans and are predominantly found in myeloid cells with varied distribution and have also been reported in multiple organs and tissues. After agonist binding, the FPRs activate a multitude of physiological pathways, such as intra cellular signaling transduction, Ca^2+ mobilization and transcription. The family interacts with a diverse set of ligands that includes proteins, polypeptides and fatty acid metabolites which activate both pro-inflammatory and pro-resolution downstream responses. FPR2 and FPR1 Cyclic Adenosine Monophosphate (cAMP) Assays were used to measure the activity of the compounds in this patent.
(§2) FPR2 and FPR1 Cyclic Adenosine Monophosphate (cAMP) Assays. A mixture of forskolin (5 μM final for FPR2 or 10 μM final for FPR1) and IBMX (200 μM final) were added to 384-well Proxiplates (Perkin-Elmer) pre-dotted with test compounds in DMSO (1% final) at final concentrations in the range of 0.020 nM to 100 μM. Chinese Hamster Ovary cells (CHO) overexpressing human FPR1 or human FPR2 receptors were cultured in F-12 (Ham's) medium supplemented with 10% qualified FBS, 250 μg/mL zeocin and 300 μg/mL hygromycin (Life Technologies). Reactions were initiated by adding 2,000 human FPR2 cells per well or 4,000 human FPR1 cells per well in Dulbecco's PBS (with calcium and magnesium) (Life Technologies) supplemented with 0.1% BSA (Perkin-Elmer). The reaction mixtures were incubated for 30 min at rt. The level of intracellular cAMP was determined using the HTRF HiRange cAMP assay reagent kit (Cisbio) according to manufacturer's instruction. Solutions of cryptate conjugated anti-cAMP and d2 flurorophore-labelled cAMP were made in a supplied lysis buffer separately. Upon completion of the reaction, the cells were lysed with equal volume of the d2-cAMP solution and anti-cAMP solution. After a 1-h rt incubation, time-resolved fluorescence intensity was measured using the Envision (Perkin-Elmer) at 400 nm excitation and dual emission at 590 nm and 665 nm. A calibration curve was constructed with an external cAMP standard at concentrations ranging from 1 μM to 0.1 μM by plotting the fluorescent intensity ratio from 665 nm emission to the intensity from the 590 nm emission against cAMP concentrations. The potency and activity of a compound to inhibit cAMP production was then determined by fitting to a 4-parametric logistic equation from a plot of cAMP level versus compound concentrations.
(§3) The examples disclosed below were tested in the FPR2 and FPR1 cAMP assay described above and found having FPR2 and/or FPR1 agonist activity. Table 1 below lists EC50 values in the FPR2 and FPR1 cAMP assays measured for the following examples.

human FPR2 receptors = molecular target: T2, human FPR2 receptors (Homo sapiens, UniProt P25090); test: FPR2 cyclic adenosine monophosphate (cAMP) assay; assay type: cell-based; conditions: CHO cells overexpressing human FPR2; forskolin 5 μM, IBMX 200 μM; 30 min at rt; inhibition of cAMP production (HTRF); read-out: hFPR2 cAMP2 EC50
T2 sequence (P25090 1-351): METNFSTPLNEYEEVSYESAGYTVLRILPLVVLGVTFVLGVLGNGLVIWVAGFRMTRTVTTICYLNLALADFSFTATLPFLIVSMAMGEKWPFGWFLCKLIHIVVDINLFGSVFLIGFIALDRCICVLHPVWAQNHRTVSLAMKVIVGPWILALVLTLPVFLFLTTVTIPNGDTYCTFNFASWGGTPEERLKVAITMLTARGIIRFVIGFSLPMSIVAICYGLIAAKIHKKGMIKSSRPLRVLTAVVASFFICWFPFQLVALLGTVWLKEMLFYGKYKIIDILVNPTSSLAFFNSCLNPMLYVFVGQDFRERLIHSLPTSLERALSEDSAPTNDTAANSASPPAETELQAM
From the text: as §1, §2, §3

EC50 (human FPR1 receptors)	EC50 (human FPR2 receptors)	SMILES
17 nM	0.76 nM	CP(C)(=O)c1ccccc1-c1ccc(N2CCC[C@@H](NC(=O)Nc3ccc(Cl)cc3F)C2=O)c(C2CC2)c1 [Example 5, 1-(4-Chloro-2-fluorophenyl)-3-[(3R)-1-[3-cyclopropyl-2′-(dimethylphosphoryl)-[1,1′-biphenyl]-4-yl]-2-oxopiperidin-3-yl]urea]
1800 nM	8.4 nM	CP(C)(=O)c1ccccc1-c1ccc(N2CCC[C@@H](NC(=O)Nc3ccc(OC(F)(F)F)cc3F)C2=O)c(F)c1F [Example 16, 3-[(3R)-1-[2′-(Dimethylphosphoryl)-2,3-difluoro-[1,1′-biphenyl]-4-yl]-2-oxopiperidin-3-yl]-1-[2-fluoro-4-(trifluoromethoxy)phenyl] urea]
